Patent publication US20200069691A1, “HETEROCYCLIC COMPOUNDS AS HIV PROTEASE INHIBITORS” (Merck Sharp & Dohme Corp., priority 2016, published 2020)

Target: T1, wild-type HIV-1 protease (Human immunodeficiency virus type 1 group M subtype B, UniProt P04585)
T1 construct: Escherichia coli expressed wild-type HIV-1 protease protein
Experiment: Assay for Inhibition of Microbial Expressed HIV Protease (peptide substrate cleavage, LC-MS/MS readout)
Format: biochemical
Settings: E. coli expressed wild-type HIV-1 protease, mean of at least two independent experiments, read-out: HIV Pr Enzyme HIV1 PR IC50
Procedure: Assay for Inhibition of Microbial Expressed HIV Protease
Inhibition of Escherichia coli expressed wild-type HIV-1 protease protein was carried out with a peptide substrate [Val-Ser-Gln-Asn-(βnaphtyl)Ala-Pro-Ile-Val]. The inhibitor compound was preincubated with HIV-1 protease enzyme in assay buffer (50 mM sodium acetate, pH 5.5, 100 mM NaCl, and 0.1% BSA) for 30 minutes at room temperature. Peptide substrate was added to 400 μM in a total volume of 20 μL containing […] HIV-1 protease (final) after which the reaction was incubated for 1 hour at 30° C. […] The extent of inhibition of the reaction was determined from the peak area of the products.
Data shown in the table reflects the mean of at least two independent experiments.

Row | Structure (SMILES) | IC50 [nM]
1 | CN1CCOc2cc(-c3ncc4c(n3)CN(C(=O)c3cc(CN5C(=N)N[C@](CCCC(F)(F)F)(c6ccc(F)cc6)C5=O)ccc3C(F)(F)F)C4)cnc21 [Compound 45, (5R)-5-(4-fluorophenyl)-2-imino-3-[3-{[2-(4-methyl-3,4-dihydro-2H-pyrido[3,2-b][1,4]oxazin-7-yl)-5,7-dihydro-6H-pyrrolo[3,4-d]pyrimidin-6-yl]carbonyl}-4-(trifluoromethyl)benzyl]-5-(4,4,4-trifluorobutyl)imidazolidin-4-one] | 4.6
2 | CC(C)Cn1cc(-c2ncc3c(n2)CN(C(=O)c2cc(CN4C(=N)N[C@](CCCC(F)(F)F)(c5ccc(F)cc5)C4=O)ccc2C(F)(F)F)C3)cn1 [Compound 46, (5R)-5-(4-fluorophenyl)-2-imino-3-[3-({2-[1-(2-methylpropyl)-1H-pyrazol-4-yl]-5,7-dihydro-6H-pyrrolo[3,4-d]pyrimidin-6-yl}carbonyl)-4-(trifluoromethyl)-benzyl]-5-(4,4,4-trifluorobutyl)-imidazolidin-4-one] | 4.82
3 | N=C1N[C@](CCCC(F)(F)F)(c2ccc(F)cc2)C(=O)N1Cc1ccc(C(F)(F)F)c(C(=O)N2Cc3cnc(-c4cccnc4)nc3C2)c1 [Compound 47, (5R)-5-(4-fluorophenyl)-2-imino-3-{3-[(2-pyridin-3-yl-5,7-dihydro-6H-pyrrolo[3,4-d]pyrimidin-6-yl)carbonyl]-4-(trifluoromethyl)-benzyl}-5-(4,4,4-trifluorobutyl)-imidazolidin-4-one] | 4.91
4 | Cc1nnc(-c2cccc(-c3ncc4c(n3)CN(C(=O)c3cc(CN5C(=N)N[C@](CCCC(F)(F)F)(c6ccc(F)cc6)C5=O)ccc3C(F)(F)F)C4)c2)o1 [Compound 48, (5R)-5-(4-fluorophenyl)-2-imino-3-[3-({2-[3-(5-methyl-1,3,4-oxadiazol-2-yl)phenyl]-5,7-dihydro-6H-pyrrolo[3,4-d]pyrimidin-6-yl}carbonyl)-4-(trifluoromethyl)-benzyl]-5-(4,4,4-trifluorobutyl)-imidazolidin-4-one] | 5.26
5 | N=C1N[C@](CCCC(F)(F)F)(c2ccc(F)cc2)C(=O)N1Cc1ccc(C(F)(F)F)c(C(=O)N2Cc3cnc(-c4cncnc4)nc3C2)c1 [Compound 49, (5R)-5-(4-fluorophenyl)-2-imino-3-{3-[(2-pyrimidin-5-yl-5,7-dihydro-6H-pyrrolo[3,4-d]pyrimidin-6-yl)carbonyl]-4-(trifluoromethyl)-benzyl}-5-(4,4,4-trifluorobutyl)-imidazolidin-4-one] | 5.43
6 | CSc1nnc2n1CCN(C(=O)c1cc(CN3C(=N)N[C@](CCCC(F)(F)F)(c4ccc(F)cc4)C3=O)ccc1C(F)(F)F)C2 [Compound 50, (5R)-5-(4-fluorophenyl)-2-imino-3-[3-{[3-(methylsulfanyl)-5,6-dihydro[1,2,4]triazolo[4,3-a]pyrazin-7(8H)-yl]carbonyl}-4-(trifluoromethyl)benzyl]-5-(4,4,4-trifluorobutyl)imidazolidin-4-one] | 5.49
7 | CC(C)Nc1ncc2c(n1)CN(C(=O)c1cc(CN3C(=N)N[C@](CCCC(F)(F)F)(c4ccc(F)cc4)C3=O)ccc1C(F)(F)F)C2 [Compound 51, (5R)-5-(4-fluorophenyl)-2-imino-3-[3-({2-[(1-methylethyl)amino]-5,7-dihydro-6H-pyrrolo[3,4-d]pyrimidin-6-yl}carbonyl)-4-(trifluoromethyl)benzyl]-5-(4,4,4-trifluorobutyl)imidazolidin-4-one] | 5.51
8 | COc1cc(-c2ncc3c(n2)CN(C(=O)c2cc(CN4C(=N)N[C@](CCCC(F)(F)F)(c5ccc(F)cc5)C4=O)ccc2C(F)(F)F)C3)ccn1 [Compound 52, (5R)-5-(4-fluorophenyl)-2-imino-3-[3-{[2-(2-methoxypyridin-4-yl)-5,7-dihydro-6H-pyrrolo[3,4-d]pyrimidin-6-yl]carbonyl}-4-(trifluoromethyl)benzyl]-5-(4,4,4-trifluorobutyl)imidazolidin-4-one] | 5.58
9 | N=C1N[C@](CCCC(F)(F)F)(c2ccc(F)cc2)C(=O)N1Cc1ccc(C(F)(F)F)c(C(=O)N2Cc3cnc(-c4ccncc4)nc3C2)c1 [Compound 53, (5R)-5-(4-fluorophenyl)-2-imino-3-{3-[(2-pyridin-4-yl-5,7-dihydro-6H-pyrrolo[3,4-d]pyrimidin-6-yl)carbonyl]-4-(trifluoromethyl)-benzyl}-5-(4,4,4-trifluorobutyl)-imidazolidin-4-one] | 5.63
10 | CC(C)CC[C@]1(c2ccc(F)cc2)NC(=N)N(C(Cc2ccccc2)c2ccc(C(F)(F)F)c(C(=O)N3CCn4c(nnc4C(F)(F)F)C3)c2)C1=O (stereo partly drawn) [Compound 54, (5R)-5-(4-fluorophenyl)-2-imino-5-(3-methylbutyl)-3-{2-phenyl-1-[4-(trifluoromethyl)-3-{[3-(trifluoromethyl)-5,6-dihydro-[1,2,4]triazolo[4,3-a]pyrazin-7(8H)-yl]carbonyl}phenyl]ethyl} imidazolidin-4-one] | 5.65
11 | N=C1N[C@](CCCC(F)(F)F)(c2ccc(F)cc2)C(=O)N1Cc1ccc(C(F)(F)F)c(C(=O)N2Cc3cnc(-c4ccc5cnccc5c4)nc3C2)c1 [Compound 55, (5R)-5-(4-fluorophenyl)-2-imino-3-{3-[(2-isoquinolin-6-yl-5,7-dihydro-6H-pyrrolo[3,4-d]pyrimidin-6-yl)carbonyl]-4-(trifluoromethyl)-benzyl}-5-(4,4,4-trifluorobutyl)-imidazolidin-4-one] | 5.99
12 | CC(C)CC[C@]1(c2ccc(F)cc2)NC(=N)N(C(CCCc2ccccc2)c2ccc(C(F)(F)F)c(C(=O)N3CCn4c(nnc4C(F)(F)F)C3)c2)C1=O (stereo partly drawn) [Compound 56, (5R)-5-(4-fluorophenyl)-2-imino-5-(3-methylbutyl)-3-{4-phenyl-1-[4-(trifluoromethyl)-3-{[3-(trifluoromethyl)-5,6-dihydro[1,2,4]-triazolo[4,3-a]pyrazin-7(8H)-yl]carbonyl}-phenyl]butyl}imidazolidin-4-one] | 6.19
13 | N=C1N[C@](CCCC(F)(F)F)(c2ccc(F)cc2)C(=O)N1Cc1ccc(C(F)(F)F)c(C(=O)N2Cc3cnc(N)nc3C2)c1 [Compound 57, (5R)-3-{3-[(2-amino-5,7-dihydro-6H-pyrrolo[3,4-d]pyrimidin-6-yl)carbonyl]-4-(trifluoromethyl)-benzyl}-5-(4-fluorophenyl)-2-imino-5-(4,4,4-trifluorobutyl)-imidazolidin-4-one] | 6.24
14 | N#Cc1ncc2c(n1)CN(C(=O)c1cc(CN3C(=N)N[C@](CCCC(F)(F)F)(c4ccc(F)cc4)C3=O)ccc1C(F)(F)F)C2 [Compound 58, 6-{[5-{[(4R)-4-(4-fluorophenyl)-2-imino-5-oxo-4-(4,4,4-trifluorobutyl)imidazolidin-1-yl]methyl}-2-(trifluoromethyl)-phenyl]carbonyl}-6,7-dihydro-5H-pyrrolo[3,4-d] pyrimidine-2-carbonitrile] | 6.43
15 | CC(=O)c1cccc(-c2ncc3c(n2)CN(C(=O)c2cc(CN4C(=N)N[C@](CCCC(F)(F)F)(c5ccc(F)cc5)C4=O)ccc2C(F)(F)F)C3)c1 [Compound 59, (5R)-3-[3-{[2-(3-acetylphenyl)-5,7-dihydro-6H-pyrrolo[3,4-d]pyrimidin-6-yl]carbonyl}-4-(trifluoromethyl)benzyl]-5-(4-fluorophenyl)-2-imino-5-(4,4,4-trifluorobutyl)imidazolidin-4-one] | 6.45
16 | Cc1nocc1-c1ncc2c(n1)CN(C(=O)c1cc(CN3C(=N)N[C@](CCCC(F)(F)F)(c4ccc(F)cc4)C3=O)ccc1C(F)(F)F)C2 [Compound 60, (5R)-5-(4-fluorophenyl)-2-imino-3-[3-{[2-(3-methylisoxazol-4-yl)-5,7-dihydro-6H-pyrrolo[3,4-d]pyrimidin-6-yl]carbonyl}-4-(trifluoromethyl)benzyl]-5-(4,4,4-trifluorobutyl)imidazolidin-4-one] | 6.55
17 | N#CCc1ccc(-c2ncc3c(n2)CN(C(=O)c2cc(CN4C(=N)N[C@](CCCC(F)(F)F)(c5ccc(F)cc5)C4=O)ccc2C(F)(F)F)C3)cn1 [Compound 61, [5-(6-{[5-{[(4R)-4-(4-fluorophenyl)-2-imino-5-oxo-4-(4,4,4-trifluorobutyl)imidazolidin-1-yl]methyl}-2-(trifluoromethyl)-phenyl]carbonyl}-6,7-dihydro-5H-pyrrolo[3,4-d]pyrimidin-2-yl)pyridin-2-yl]acetonitrile] | 6.6
18 | N=C1N[C@](CCCC(F)(F)F)(c2ccc(F)cc2)C(=O)N1Cc1ccc(C(F)(F)F)c(C(=O)N2Cc3cnc(-c4cccc(N5CCCC5)c4)nc3C2)c1 [Compound 62, (5R)-5-(4-fluorophenyl)-2-imino-3-[3-{[2-(3-pyrrolidin-1-ylphenyl)-5,7-dihydro-6H-pyrrolo[3,4-d]pyrimidin-6-yl]carbonyl}-4-(trifluoromethyl)benzyl]-5-(4,4,4-trifluorobutyl)imidazolidin-4-one] | 6.86
19 | N=C1N[C@](CCCC(F)(F)F)(c2ccc(F)cc2)C(=O)N1Cc1ccc(C(F)(F)F)c(C(=O)N2Cc3cnc(-c4ccsc4)nc3C2)c1 [Compound 63, (5R)-5-(4-fluorophenyl)-2-imino-3-{3-[(2-thiophen-3-yl-5,7-dihydro-6H-pyrrolo[3,4-d]pyrimidin-6-yl)carbonyl]-4-(trifluoromethyl)-benzyl}-5-(4,4,4-trifluorobutyl)-imidazolidin-4-one] | 6.94
20 | Cc1noc2ccc(-c3ncc4c(n3)CN(C(=O)c3cc(CN5C(=N)N[C@](CCCC(F)(F)F)(c6ccc(F)cc6)C5=O)ccc3C(F)(F)F)C4)cc12 [Compound 64, (5R)-5-(4-fluorophenyl)-2-imino-3-[3-{[2-(3-methyl-1,2-benzisoxazol-5-yl)-5,7-dihydro-6H-pyrrolo[3,4-d]pyrimidin-6-yl]carbonyl}-4-(trifluoromethyl)benzyl]-5-(4,4,4-trifluorobutyl)imidazolidin-4-one] | 7.09
